# Assay results published in patent US10287297B2, “Epoxyazulene derivatives useful for treating cancer and diabetes” (The United States of America, as represented by the …, priority 2015, dated 2019).
# Tests used:
# Assay type in all cases: cell-based
# [1] = test system: MOLT-4; test: NCI 60 cell assay, leukemia MOLT-4; conditions: Homo sapiens, 48 h; MOLT-4 (leukemia); drug exposure two days, SRB endpoint; read-out: GI-50 value
# Experimental: (§1) Samples were tested in the standard National Cancer Institute 60-cell line protocol. First, they were tested against all 60 cell lines in a single final concentration of 10 micromolar. Then, they were separately tested in five 10-fold dilutions. The drug exposure was two days, with an SRB endpoint.
# [2] = test system: SR; test: NCI 60 cell assay, leukemia SR; conditions: Homo sapiens, 48 h, drug exposure two days, SRB endpoint, read-out: GI-50 value
# Experimental: as §1
# [3] = test system: HOP-62; test: NCI 60 cell assay, NSCLC HOP-62; conditions: Homo sapiens, 48 h; HOP-62 (NSCLC); drug exposure two days, SRB endpoint; read-out: GI-50 value
# Experimental: as §1
# [4] = test system: NCI-H226; test: NCI 60 cell assay, NSCLC NCI-H226; conditions: Homo sapiens, 48 h, drug exposure two days, SRB endpoint, read-out: GI-50 value
# Experimental: as §1
# [5] = test system: NCI-H23; test: NCI 60 cell assay, NSCLC NCI-H23; conditions: Homo sapiens, 48 h, drug exposure two days, SRB endpoint, read-out: GI-50 value
# Experimental: as §1
# [6] = test system: NCI-H322M; test: NCI 60 cell assay, NSCLC NCI-H322M; conditions: Homo sapiens, 48 h, drug exposure two days, SRB endpoint, read-out: GI-50 value
# Experimental: as §1
# [7] = test system: NCI-H460; test: NCI 60 cell assay, NSCLC NCI-H460; conditions: Homo sapiens, 48 h, drug exposure two days, SRB endpoint, read-out: GI-50 value
# Experimental: as §1
# [8] = test system: HCC-2998; test: NCI 60 cell assay, colon HCC-2998; conditions: Homo sapiens, 48 h; HCC-2998 (colon); drug exposure two days, SRB endpoint; read-out: GI-50 value
# Experimental: as §1
# [9] = test system: HT29; test: NCI 60 cell assay, colon HT29; conditions: Homo sapiens, HT-29, 48 h, drug exposure two days, SRB endpoint, read-out: GI-50 value
# Experimental: as §1
# [10] = test system: SW-620; test: NCI 60 cell assay, colon SW-620; conditions: Homo sapiens, 48 h; SW-620 (colon); drug exposure two days, SRB endpoint; read-out: GI-50 value
# Experimental: as §1
# [11] = test system: SF-268; test: NCI 60 cell assay, CNS SF-268; conditions: Homo sapiens, 48 h; SF-268 (CNS); drug exposure two days, SRB endpoint; read-out: GI-50 value
# Experimental: as §1
# [12] = test system: SF-539; test: NCI 60 cell assay, CNS SF-539; conditions: Homo sapiens, 48 h; SF-539 (CNS); drug exposure two days, SRB endpoint; read-out: GI-50 value
# Experimental: as §1
# [13] = test system: SNB-19; test: NCI 60 cell assay, CNS SNB-19; conditions: Homo sapiens, 48 h; SNB-19 (CNS); drug exposure two days, SRB endpoint; read-out: GI-50 value
# Experimental: as §1
# [14] = test system: U251; test: NCI 60 cell assay, CNS U251; conditions: Homo sapiens, U-251, 48 h, drug exposure two days, SRB endpoint, read-out: GI-50 value
# Experimental: as §1
# [15] = test system: MALME-3M; test: NCI 60 cell assay, melanoma MALME-3M; conditions: Homo sapiens, 48 h; MALME-3M (melanoma); drug exposure two days, SRB endpoint; read-out: GI-50 value
# Experimental: as §1
# [16] = test system: M14; test: NCI 60 cell assay, melanoma M14; conditions: Homo sapiens, 48 h, drug exposure two days, SRB endpoint, read-out: GI-50 value
# Experimental: as §1
# [17] = test system: MDA-MB-435; test: NCI 60 cell assay, melanoma MDA-MB-435; conditions: Homo sapiens, 48 h; MDA-MB-435 (melanoma); drug exposure two days, SRB endpoint; read-out: GI-50 value
# Experimental: as §1
# [18] = test system: SK-MEL-28; test: NCI 60 cell assay, melanoma SK-MEL-28; conditions: Homo sapiens, 48 h; SK-MEL-28 (melanoma); drug exposure two days, SRB endpoint; read-out: GI-50 value
# Experimental: as §1
# [19] = test system: SK-MEL-5; test: NCI 60 cell assay, melanoma SK-MEL-5; conditions: Homo sapiens, 48 h; SK-MEL-5 (melanoma); drug exposure two days, SRB endpoint; read-out: GI-50 value
# Experimental: as §1
# [20] = test system: UACC-257; test: NCI 60 cell assay, melanoma UACC-257; conditions: Homo sapiens, 48 h; UACC-257 (melanoma); drug exposure two days, SRB endpoint; read-out: GI-50 value
# Experimental: as §1
# [21] = test system: UACC-62; test: NCI 60 cell assay, melanoma UACC-62; conditions: Homo sapiens, 48 h; UACC-62 (melanoma); drug exposure two days, SRB endpoint; read-out: GI-50 value
# Experimental: as §1
# [22] = test system: OVCAR-3; test: NCI 60 cell assay, ovarian OVCAR-3; conditions: Homo sapiens, 48 h; OVCAR-3 (ovarian); drug exposure two days, SRB endpoint; read-out: GI-50 value
# Experimental: as §1
# [23] = test system: OVCAR-4; test: NCI 60 cell assay, ovarian OVCAR-4; conditions: Homo sapiens, 48 h; OVCAR-4 (ovarian); drug exposure two days, SRB endpoint; read-out: GI-50 value
# Experimental: as §1
# [24] = test system: OVCAR-5; test: NCI 60 cell assay, ovarian OVCAR-5; conditions: Homo sapiens, 48 h; OVCAR-5 (ovarian); drug exposure two days, SRB endpoint; read-out: GI-50 value
# Experimental: as §1
# [25] = test system: SK-OV-3; test: NCI 60 cell assay, ovarian SK-OV-3; conditions: Homo sapiens, 48 h; SK-OV-3 (ovarian); drug exposure two days, SRB endpoint; read-out: GI-50 value
# Experimental: as §1
# [26] = test system: ACHN; test: NCI 60 cell assay, renal ACHN; conditions: Homo sapiens, 48 h, drug exposure two days, SRB endpoint, read-out: GI-50 value
# Experimental: as §1
# [27] = test system: CAKI-1; test: NCI 60 cell assay, renal CAKI-1; conditions: Homo sapiens, 48 h; CAKI-1 (renal); drug exposure two days, SRB endpoint; read-out: GI-50 value
# Experimental: as §1
# [28] = test system: DU-145; test: NCI 60 cell assay, prostate DU-145; conditions: Homo sapiens, 48 h; DU-145 (prostate); drug exposure two days, SRB endpoint; read-out: GI-50 value
# Experimental: as §1
# [29] = test system: MCF7; test: NCI 60 cell assay, breast MCF7; conditions: Homo sapiens, 48 h, drug exposure two days, SRB endpoint, read-out: GI-50 value
# Experimental: as §1
# [30] = test system: HS 578T; test: NCI 60 cell assay, breast HS 578T; conditions: Homo sapiens, 48 h; HS 578T (breast); drug exposure two days, SRB endpoint; read-out: GI-50 value
# Experimental: as §1
# [31] = test system: T-47D; test: NCI 60 cell assay, breast T-47D; conditions: Homo sapiens, T47D, 48 h; T-47D (breast); drug exposure two days, SRB endpoint; read-out: GI-50 value
# Experimental: as §1
# [32] = test system: MDA-MB-468; test: NCI 60 cell assay, breast MDA-MB-468; conditions: Homo sapiens, 48 h; MDA-MB-468 (breast); drug exposure two days, SRB endpoint; read-out: GI-50 value
# Experimental: as §1
Structure (SMILES),GI50 [1],GI50 [2],GI50 [3],GI50 [4],GI50 [5],GI50 [6],GI50 [7],GI50 [8],GI50 [9],GI50 [10],GI50 [11],GI50 [12],GI50 [13],GI50 [14],GI50 [15],GI50 [16],GI50 [17],GI50 [18],GI50 [19],GI50 [20],other results
"CC1=C2[C@@H](CC1)[C@]1(C)O[C@@](C3CCCCC3)(C[C@H]1OC(=O)CO)[C@H]2OC(=O)C=Cc1ccccc1 [(Iq), (3aR,4S,5R,7R,8S)-7-cyclohexyl-5-(2-hydroxyacetoxy)-1,4-dimethyl-2,3,3a,4,5,6,7,8-octahydro-4,7-epoxyazulen-8-yl cinnamate]",12 µM,9 µM,14 µM,12 µM,14 µM,17 µM,13 µM,13 µM,12 µM,14 µM,0.7 µM,17 µM,17 µM,13 µM,17 µM,15 µM,15 µM,17 µM,14 µM,14 µM,GI50 [21]: 15 µM; GI50 [22]: 13 µM; GI50 [23]: 15 µM; GI50 [24]: 19 µM; GI50 [25]: 13 µM; GI50 [26]: 0.035 µM; GI50 [27]: 10 µM; GI50 [28]: 13 µM; GI50 [29]: 4.5 µM; GI50 [30]: 0.03 µM; GI50 [31]: 9.1 µM; GI50 [32]: 12 µM
"CC1=C2[C@@H](CC1)[C@]1(C)O[C@@](C3CC3)(C[C@H]1OC(=O)CO)[C@H]2OC(=O)C=Cc1ccccc1 [Compound (Is), (3aR,4S,5R,7R,8S)-7-cyclopropyl-5-(2-hydroxyacetoxy)-1,4-dimethyl-2,3,3a,4,5,6,7,8-octahydro-4,7-epoxyazulen-8-yl cinnamate]",16 µM,17 µM,16 µM,17 µM,17 µM,17 µM,18 µM,17 µM,17 µM,20 µM,1.6 µM,17 µM,19 µM,15 µM,16 µM,17 µM,17 µM,18 µM,18 µM,16 µM,GI50 [21]: 15 µM; GI50 [22]: 16 µM; GI50 [23]: 15 µM; GI50 [24]: 17 µM; GI50 [25]: 16 µM; GI50 [26]: 0.028 µM; GI50 [27]: 11 µM; GI50 [28]: 18 µM; GI50 [29]: 13 µM; GI50 [30]: 0.023 µM; GI50 [31]: 14 µM; GI50 [32]: 15 µM
"CC(=O)O[C@@H]1C[C@]2(C(C)C)O[C@@]1(C)[C@@H]1CCC(C)=C1[C@@H]2OC(=O)C=Cc1ccccc1 [(Im), (3aR,4S,5R,7R,8S)-5-acetoxy-7-isopropyl-1,4-dimethyl-2,3,3a,4,5,6,7,8-octahydro-4,7-epoxyazulen-8-yl cinnamate]",27 µM,32 µM,89 µM,29 µM,35 µM,100 µM,31 µM,68 µM,31 µM,39 µM,35 µM,100 µM,85 µM,48 µM,39 µM,40 µM,39 µM,69 µM,22 µM,28 µM,GI50 [21]: 26 µM; GI50 [22]: 22 µM; GI50 [23]: 11 µM; GI50 [24]: 100 µM; GI50 [25]: 71 µM; GI50 [26]: 4.5 µM; GI50 [27]: 13 µM; GI50 [28]: 71 µM; GI50 [29]: 19 µM; GI50 [30]: 4.8 µM; GI50 [31]: 20 µM; GI50 [32]: 24 µM
"CC1=C2[C@@H](CC1)[C@]1(C)O[C@@](c3ccccc3)(C[C@H]1OC(=O)CO)[C@H]2OC(=O)C=Cc1ccccc1 [(Ir), (3aR,4S,5R,7R,8S)-5-(2-hydroxyacetoxy)-1,4-dimethyl-7-phenyl-2,3,3a,4,5,6,7,8-octahydro-4,7-epoxyazulen-8-yl cinnamate]",12 µM,11 µM,18 µM,16 µM,17 µM,22 µM,15 µM,15 µM,16 µM,21 µM,1.4 µM,18 µM,22 µM,13 µM,20 µM,17 µM,17 µM,18 µM,15 µM,19 µM,GI50 [21]: 15 µM; GI50 [22]: 15 µM; GI50 [23]: 15 µM; GI50 [24]: 22 µM; GI50 [25]: 19 µM; GI50 [26]: 0.035 µM; GI50 [27]: 13 µM; GI50 [28]: 17 µM; GI50 [29]: 10 µM; GI50 [30]: 0.033 µM; GI50 [31]: 11 µM; GI50 [32]: 15 µM
